In patent publication US5589477A, “Pyrimidine derivatives and drugs” (Nippon Shinyaku Company, Limited, priority 1990, dated 1996):
Counter-ions that a name gives are not always drawn.

How the values were obtained:
[1] = test system: mice; assay: Acute toxicity (mice, p.o.); type: in vivo; settings: 1000 mg/kg p.o., male mice, 72 hours
Procedure: Male mice, 6 weeks of age (4 mice/group) were deprived of foods overnight. Test drugs suspended in 0.5% methyl cellulose solution were administered orally to the mice. Whether the animals were dead or not was observed 72 hours after the treatment of the drugs.

[2] = biological target: T1, muscarinic M1 receptors (Rattus norvegicus, UniProt P08482); assay: Binding assay for muscarinic M1 receptors ([^3 H]pirenzepine displacement, rat brain membranes); settings: 1 nM [^3 H]pirenzepine, pH 7.4, 25° C., 60 minutes
T1 construct: receptor membrane preparations from rat brain; from tissue; host or cells: rat brain membranes
T1 sequence (P08482 1-460): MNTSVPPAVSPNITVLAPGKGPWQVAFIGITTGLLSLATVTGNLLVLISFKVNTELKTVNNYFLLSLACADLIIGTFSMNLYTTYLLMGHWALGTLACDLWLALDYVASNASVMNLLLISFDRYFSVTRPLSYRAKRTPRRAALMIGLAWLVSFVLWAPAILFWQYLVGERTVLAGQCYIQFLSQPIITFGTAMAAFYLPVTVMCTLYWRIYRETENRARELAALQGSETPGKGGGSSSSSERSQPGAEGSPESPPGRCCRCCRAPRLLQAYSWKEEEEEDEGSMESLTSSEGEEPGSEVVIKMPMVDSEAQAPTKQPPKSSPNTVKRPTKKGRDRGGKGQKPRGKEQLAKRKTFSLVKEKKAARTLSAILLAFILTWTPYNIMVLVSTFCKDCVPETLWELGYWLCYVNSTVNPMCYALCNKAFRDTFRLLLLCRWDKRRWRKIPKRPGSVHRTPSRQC
Procedure: (3) Effect on muscarinic M1 receptors
Binding assay for muscarinic M1 receptors was carried out according to the method of Watson and Yamamura [Life Sci. 3001-3011(1983)]. Namely, the receptor membrane preparations from rat brain were incubated with 1 nM [^3 H]pirenzepine in 10 mM Na/K phosphate buffer solution (pH 7.4) at 25° C. for 60 minutes. 1 μM of atropine was used as a displacer.

Structure (SMILES)	Lethality (Number of dead animals/Number of animals used) [1]	IC50 [2]
COc1ccc(-c2nc(C)cc(OCCN3CCN(C(c4ccccc4)c4ccccc4)CC3)n2)cc1 [Example 3, 4-[2-(4-diphenylmethylpiperazino)ethoxy]-2-(4-methoxyphenyl)-6-methylpyrimidine]	0/4	
COc1ccc(-c2nc(C)cc(N3CCN(C(c4ccccc4)c4ccccc4)CC3)n2)cc1 [Example 4, 4-(4-diphenylmethylpiperazino)-2-(4-methoxyphenyl)-6-methylpyrimidine]	0/4	
Cc1cc(OCCN2CCN(c3ccccc3)CC2)nc(-c2ccccc2)n1.O=C(O)/C=C\C(=O)O [Example 11, 4-Methyl-2-phenyl-6-[2-(4-phenylpiperazino)ethoxy] pyrimidine maleate]	0/4	
Cc1cc(OCCN2CCN(C(c3ccccc3)c3ccccc3)CC2)nc(-c2ccccc2)n1 [Example 13, 4-[2-(4-diphenylmethylpiperazino)ethoxy]-6-methyl-2-phenylpyrimidine]	0/4	
COc1ccc(-c2nc(C)cc(OCCN3CCN(c4ccccc4)CC3)n2)cc1 [Example 21, 2-(4-methoxyphenyl)-4-methyl-6-[2-(4-phenylpiperazino)ethoxy]pyrimidine]	0/4	
Cc1cc(O[C@H]2CN3CCC2CC3)nc(-c2ccc(F)cc2)n1 [Example 27, (R)-(-)-4-(1-azabicyclo[2,2,2]octo-3-yloxy)-2-(4-fluorophenyl) 6-methylpyrimidine maleate]		0.17 µM
Cc1cc(N2CCN(C(c3ccccc3)c3ccccc3)CC2)nc(-c2ccccc2)n1 [Example 35, 4-(4-diphenylmethylpiperazino)-6-methyl-2-phenylpyrimidine]	0/4	
Cc1cc(O[C@H]2CN3CCC2CC3)nc(-c2ccc(Cl)cc2)n1 [Example 44, (R)-(-)-4-(1-azabicyclo[2,2,2]octo-3-yloxy)-2-(4-chlorophenyl) 6-methylpyrimidine maleate]	0/4	0.24 µM
Cc1cc(O[C@H]2CN3CCC2CC3)nc(-c2ccc(O)cc2)n1 [Example 58, (R)-(-)-4-(1-azabicyclo[2,2,2]octo-3-yloxy)-2-(4-hydroxyphenyl) 6-methylpyrimidine maleate]	0/4	0.81 µM
COc1ccc(-c2nc(O[C@H]3CN4CCC3CC4)cc(C(C)(C)C)n2)cc1 [Example 60, (R)-(-)-4-(1-azabicyclo[2,2,2]octo-3-yloxy)-6-tert-butyl-2-(4-methoxyphenyl)pyrimidine maleate]		3.1 µM
Fc1ccc(-c2nc(O[C@H]3CN4CCC3CC4)cc(C(F)(F)F)n2)cc1 [Example 63, (R)-(-)-4-(1-azabicyclo[2,2,2]octo-3-yloxy)-2-(4-fluorophenyl) 6-trifluoromethylpyrimidine maleate]		0.6 µM
